Values belong to the compound of their own block, whether it stands above or below them.
How the values were obtained:
[1] = test system: two-spotted spider mites (Tetranychus urticae); assay: Acaricidal test for two-spotted spider mites; assay type: in vivo; details: 500 ppm solution sprayed 2 ml/cup on larvae on kidney bean leaf discs; 25° C.; after 96 hours
Experimental: [Test Example 1] Acaricidal Test For Two-spotted Spider Mites (Tetranychus urticae)
The leaves of kidney bean plants were punched into 3.0 cm-diameter discs, using a leaf punch, and put onto moistured filter paper in a 7 cm-diameter styrol cup. Ten larvae of two-spotted spider mites (Tetranychus urticae) were put to each leaf. A 5% emulsion (or 25% wettable powder) of a compound of the invention was diluted with water containing a spreading agent to give a 500 ppm solution of the compound. The solution was sprayed over each cup in an amount of 2 ml/cup, using a rotary sprinkler, and the cups were stored in a thermostatic chamber at 25° C. After 96 hours passed, the mites in each cup were observed, and mortality of the mites was determined according to the following equation. Each compound was tested in that manner for two groups of dishes.
Mortality (%)=[number of insect killed/(number of insect killed+number of living insect)]×100

[2] = test system: citrus red mite (Panonychus citri); assay: Residual effect test for citrus red mite; assay type: in vivo; details: Table 4, spray solution 100 ppm, 48 hours
Experimental: Residual Effect Test for Citrus Red Mite (Panonychus citri)
A 5% emulsion (or 25% wettable powder) of a compound of the invention was diluted with water containing a spreading agent to give a solution of the compound with prescribed concentration. The solution was sprayed over each orange planted in a pot in an amount of 250 ml/pot, using a rotary sprinkler, and the pot were left in the open air. After the prescribed days, the leaves of orange plants were punched into 3.0 cm-diameter discs, using a leaf punch, and put onto moistured filter paper in a 7 cm-diameter styrol cup. Ten larvae of citrus red mite (Panonychus citri) were put to each leaf. Then, the cups were stored in a thermostatic chamber at 25° C. After 48 hours passed, the mites in each cup were observed, and mortality of the mites was determined according to the same equation as in Test Example 1. Each compound was tested in that manner for four groups of dishes.
In the test, the following Compound A described in WO97/40009 was used as a comparative compound. [drawing 35]

Compound: COc1ccccc1-n1nc(C)c(C(C#N)=C(OC(=O)C(C)(C)C)c2c(Cl)c(C)nn2C)n1 (mixture of isomers) [compound 62]
mortality [1]: ≥ 80%

Compound: Cc1nn(-c2ccccc2)nc1/C(C#N)=C(\OC(=O)C(C)(C)C)c1c(C(F)(F)F)nn(C)c1Cl [Compound A]
mortality at 100 ppm ([2]; 2 days left in the open air after spraying): 17.5%
mortality at 100 ppm ([2]; 4 days left in the open air after spraying): 40%

melting point: 117 to 118 °C
Compound: Cc1nc(C)c(C(O)=C(C#N)c2nn(-c3ccccc3)nc2C)s1 [Compound No. 20, 3-(2,4-Dimethylthiazol-5-yl)-3-hydroxy-2-(5-methyl-2-phenyl-1,2,3-triazol4-yl)acrylonitrile]

— patent publication US6642234B1, “Acrylonitrile compounds” (Nissan Chemical Industries, Ltd., priority 1998, dated 2003)
